Like-named read-outs stand apart in the source and are kept apart here.
Assays:
647V cells = assay: High throughput proliferation (HTP) assay; format: cell-based; settings: read-out: CREBBP HTP IC50
How it was run: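 Exponentially growing 647V cells in DMEM with 15% FBS were treated in triplicate with increasing compound concentrations at 37° C, 5% CO2. Viable cell number was read by CellTiter-Glo luminescence on day 7; IC50 in micromolar.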

CREBBP (1084-1701) = target: T1, CREBBP (1084-1701) (Homo sapiens, UniProt Q92793); assay: Biochemical assay for CREBBP (1084-1701), SAMDI; settings: read-out: CREBBP Biochemistry IC50
T1 construct: measured in the following biochemical assay using CREBBP (1084-1701); purchased
T1 sequence (Q92793 1084-1701): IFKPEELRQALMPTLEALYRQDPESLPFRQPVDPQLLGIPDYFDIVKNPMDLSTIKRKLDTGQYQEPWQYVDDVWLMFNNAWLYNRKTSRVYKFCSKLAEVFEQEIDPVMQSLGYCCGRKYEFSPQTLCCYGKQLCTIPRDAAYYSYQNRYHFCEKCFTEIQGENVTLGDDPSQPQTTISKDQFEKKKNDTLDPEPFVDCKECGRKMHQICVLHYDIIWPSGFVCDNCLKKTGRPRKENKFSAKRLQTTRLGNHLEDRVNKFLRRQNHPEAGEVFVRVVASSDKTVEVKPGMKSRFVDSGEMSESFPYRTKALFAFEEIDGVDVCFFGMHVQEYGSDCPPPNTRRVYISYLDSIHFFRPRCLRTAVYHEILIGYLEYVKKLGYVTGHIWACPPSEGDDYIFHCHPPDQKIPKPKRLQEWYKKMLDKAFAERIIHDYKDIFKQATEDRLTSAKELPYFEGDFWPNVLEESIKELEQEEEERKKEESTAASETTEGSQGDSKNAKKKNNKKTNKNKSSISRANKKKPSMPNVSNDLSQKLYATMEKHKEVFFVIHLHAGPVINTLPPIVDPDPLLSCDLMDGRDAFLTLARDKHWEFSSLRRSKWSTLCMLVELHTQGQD
How it was run: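 CREBBP (1084-1701) preincubated with compound 30 min at RT, then substrate mix (biotin-H3 11-25 K14R/K23R peptide, acetyl-CoA) added for 30 min at RT. Reaction stopped with formic acid, neutralised with sodium bicarbonate. Peptide acetylation read by SAMDI mass spectrometry to derive IC50.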

EP300 (P300(1048-1664)) = target: T2, EP300 (P300(1048-1664)) (Homo sapiens, UniProt Q09472); assay: Biochemical assay for EP300, SAMDI; settings: read-out: EP300 Biochemistry IC50
T2 construct: P300(1048-1664)
T2 sequence (Q09472 1048-1664): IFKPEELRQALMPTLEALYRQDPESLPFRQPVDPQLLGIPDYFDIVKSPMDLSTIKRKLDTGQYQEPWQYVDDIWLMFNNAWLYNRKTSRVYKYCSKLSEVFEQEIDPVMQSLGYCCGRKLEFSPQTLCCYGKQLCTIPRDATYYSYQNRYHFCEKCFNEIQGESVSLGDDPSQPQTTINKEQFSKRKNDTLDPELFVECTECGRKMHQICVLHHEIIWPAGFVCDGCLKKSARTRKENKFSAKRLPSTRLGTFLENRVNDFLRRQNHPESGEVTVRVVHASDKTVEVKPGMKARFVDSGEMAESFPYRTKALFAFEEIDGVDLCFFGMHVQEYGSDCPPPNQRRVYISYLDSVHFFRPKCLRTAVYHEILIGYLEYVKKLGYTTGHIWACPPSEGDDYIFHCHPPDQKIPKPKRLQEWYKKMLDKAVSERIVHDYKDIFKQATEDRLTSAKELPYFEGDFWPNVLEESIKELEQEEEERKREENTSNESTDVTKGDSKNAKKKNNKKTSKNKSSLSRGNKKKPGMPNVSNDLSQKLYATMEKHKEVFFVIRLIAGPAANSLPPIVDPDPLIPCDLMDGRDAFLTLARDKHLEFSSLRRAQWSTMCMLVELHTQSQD
Text: The following example describes materials and methods relating to a biochemical assay for EP300. IC50 values (micromolar (μM)) are summarized in Table 1, Table 2, and Table 3 under the column labeled: “EP300 Biochemistry IC50 (micromolar).”

[1] = tested on: H3K18Ac in HB-CLS-2 cells; assay: H3K18AC in-cell western (ICW) assay; format: cell-based; settings: read-out: CREBBP ICW IC50
How it was run: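 HB-CLS-2 cells seeded 16–24 hours before 2 hr compound treatment at 37° C, 5% CO2, then methanol-fixed. H3K18Ac detected with rabbit monoclonal primary (overnight, 4° C) and 800CW anti-rabbit secondary; DRAQ5 stained DNA. Plates imaged at 700 and 800 nm for integrated intensity; IC50 in μM.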

[2] = Homo sapiens, 647-V, high throughput proliferation
[3] = Homo sapiens, 647-V, 168 h, 647V cells, day 7, CellTiter-Glo
[4] = Peptide #233, Acetyl-CoA, SAMDI mass spectrometry
[5] = P300(1048-1664), Peptide #233, Ac-CoA, SAMDI mass spectrometry
[6] = 2 h, H3K18Ac in HB-CLS-2 cells, 2 hrs compound incubation

Compound	IC50 (CREBBP (1084-1701); SAMDI)	IC50 (EP300 (P300(1048-1664)); EP300, SAMDI)	IC50 ([1]; H3K18Ac in-cell western)	IC50 (CREBBP (1084-1701); [4])	IC50 (EP300 (P300(1048-1664)); [5])	IC50 [1, 6]	IC50 ([1]; H3K18Ac in-cell western, HB-CLS-2 cells)	IC50 (647V cells; [2])	IC50 (647V cells; [3])	IC50 (647V cells; high throughput proliferation)	IC50 (647V cells; Homo sapiens, 647-V, high throughput proliferation, 647V cells)
CCn1ncc(CN(C)C(=O)c2nc(-n3cc(C)cn3)nc3ccc(Cl)cc23)c1C [Compound 182]	70 µM	19 µM	19 µM					7.8 µM			
CCn1ncc(CN(C)C(=O)c2cc(-c3cc(C(=O)NC)n(C)n3)nc3ccc(C4CC4)cc23)c1C [Compound 635]				0.0242 µM	0.0066 µM	0.0526 µM			0.143 µM		
CCn1ncc(CN(C)C(=O)c2nc(-c3cc(C(=O)NCCCN4CCCC4)[nH]n3)nc3ccc(Cl)cc23)c1C [Compound 75]	0.13 µM	0.054 µM	1 µM					0.51 µM			
CCn1ncc(CN(C)C(=O)c2nc(-c3ccc(OCCNC)c(Cl)c3)nc3ccc(CS(C)(=O)=O)cc23)c1C [Compound 503]	9.85 µM	9.28 µM	17.1 µM					7.61 µM			
CCn1ncc(CN(C)C(=O)c2nc(-c3ccc(OCCCN4CCCCC4)c(C)c3)nc3ccc(Cl)cc23)c1C [Compound 42]	0.069 µM	0.088 µM	0.38 µM					0.18 µM			
CNCCNc1ccc(-c2cc(C(=O)N(C)Cc3cncn3C)c3cc(Cl)ccc3n2)nc1C [Compound 543]	8.54 µM	8.96 µM	6.82 µM					2.26 µM			
CCn1ncc(CN(C)C(=O)c2cc(-c3ccc(NCCNC)c(C)n3)nc3ccc(Cl)cc23)c1C1CC1 [Compound 553]	0.0525 µM	0.535 µM	0.467 µM					0.763 µM			
CCn1ncc(CN(C)C(=O)c2cc(-c3cnc(CN(C)C)[nH]3)nc3ccc(Cl)cc23)c1C [Compound 146]	4 µM	2.3 µM	6.5 µM					10 µM			
CCn1ncc(CN(C)C(=O)c2cc(-c3ccc(OCC(O)CNC)c(C)n3)nc3ccc(Cl)cc23)c1C (stereo not shown) [Compound 435]	0.0368 µM	0.0158 µM	0.163 µM							0.102 µM	
CCn1ncc(CN(C)C(=O)c2nc(-c3ccc(OCCN4CCCC4)c(Cl)c3)nc3ccc(Cl)cc23)c1C [Compound 54]	0.063 µM	0.33 µM	0.57 µM					0.28 µM			
CCn1ncc(CN(C)C(=O)c2nc(-c3ccc(OCCNC)c(Cl)c3)nc3ccc(OC)cc23)c1C [Compound 152]	3.6 µM	3.6 µM	8.9 µM					1.6 µM			
CCn1ncc(CN(C)C(=O)c2cc(-c3ccc(NCCNC)c(C)n3)nc3ccc(Cl)cc23)c1COC [Compound 559]	0.593 µM	2.05 µM	0.838 µM					1.24 µM			
CCn1ncc(CN(C)C(=O)c2cc(-c3ccc(NCCNC)c(C)n3)nc3ccc(C(=O)N(C)C)cc23)c1C [Compound 460]	≥ 50 µM	≥ 50 µM	20 µM					20 µM			
CCn1ncc(CN(C)C(=O)c2nc(-c3cc4c(N)n(CCNC)nc4cc3C)nc3ccc(Cl)cc23)c1C [Compound 515]	0.0705 µM	0.0494 µM	0.166 µM					0.0785 µM			
CCn1ncc(CN(C)C(=O)c2nc(-c3cc(C#N)cc(NCCN(C)C(=O)OC(C)(C)C)c3)nc3ccc(Cl)cc23)c1C [Compound 105]	3.3 µM	2.3 µM	2.4 µM					1.8 µM			
CCn1ncc(CN(C)C(=O)c2nc(-c3cc(Cl)cc(CN4CCNCC4)c3)nc3ccc(Cl)cc23)c1C [Compound 124]	0.37 µM	1.4 µM	3.9 µM					4.1 µM			
CNc1[nH]nc2cc(C)c(-c3nc(C(=O)N(C)Cc4cnc(C5CC5)n4C)c4cc(COC)ccc4n3)cc12 [Compound 617]	0.0408 µM	0.0133 µM	0.0876 µM					0.0841 µM			
CCn1ncc(CN(C)C(=O)c2nc(-c3cc4c(NC)n[nH]c4cc3C)nc3ccc(Br)cc23)c1C [Compound 562]	0.0494 µM	0.0149 µM	0.154 µM					0.0879 µM			
CCc1ncc(CN(C)C(=O)c2cc(-c3ccc(OCC(O)CNC)c(C)n3)nc3ccc(COC)cc23)n1C (stereo not shown) [Compound 477]	0.141 µM	0.0476 µM	2.07 µM					1.28 µM			
CCn1ncc(CN(C)C(=O)c2nc(-c3cc4[nH]cnc4cc3C)nc3ccc(Cl)cc23)c1C [Compound 17]	0.06 µM	0.12 µM	0.17 µM					0.13 µM			
CCn1ncc([C@H](C)N(C)C(=O)c2cc(-c3ccc(NCCNC)c(C)n3)nc3ccc(Cl)cc23)c1C [Compound 607]	6.51 µM	3.38 µM	3.27 µM					1.97 µM			
CCc1ncc(CN(C)C(=O)c2nc(-c3cc(C(=O)NC)n(C)n3)nc3ccc(C4CC4)cc23)n1C [Compound 633]				0.0343 µM	0.0146 µM	0.227 µM			0.369 µM		
CCn1ncc(CN(C)C(=O)c2nc(-c3nc4c[nH]nc4cc3C)nc3ccc(Cl)cc23)c1C [Compound 522]	26 µM	16.6 µM	16.6 µM					8.06 µM			

Continued by falling IC50 (CREBBP (1084-1701); SAMDI), values first:

IC50 (CREBBP (1084-1701); SAMDI)	IC50 (EP300 (P300(1048-1664)); EP300, SAMDI)	IC50 ([1]; H3K18Ac in-cell western)	IC50 (CREBBP (1084-1701); [4])	IC50 (EP300 (P300(1048-1664)); [5])	IC50 [1, 6]	IC50 ([1]; H3K18Ac in-cell western, HB-CLS-2 cells)	Compound	IC50 (647V cells; [2])	IC50 (647V cells; [3])	IC50 (647V cells; high throughput proliferation)	IC50 (647V cells; Homo sapiens, 647-V, high throughput proliferation, 647V cells)
0.0303 µM	0.014 µM	0.294 µM					CCc1noc(C(C)N(C)C(=O)c2nc(-c3ccc(NCCN(C)C)c(C)c3)nc3ccc(Cl)cc23)c1C (stereo not shown) [Compound 606]	0.0807 µM			
0.0299 µM	0.0063 µM	0.35 µM					CCn1ncc(CN(C)C(=O)c2cc(-c3cc(N[C@@H]4CCNC4)cc(C)n3)nc3ccc(Cl)cc23)c1C [Compound 531]	0.0889 µM			
0.0238 µM	0.0145 µM	0.0599 µM					CCn1ncc(CN(C)C(=O)c2cc(-c3ccc(NCCN(C)C)c(C(F)(F)F)n3)nc3ccc(Cl)cc23)c1C [Compound 619]	0.0325 µM			
0.0236 µM	0.0311 µM	0.127 µM					CCn1ncc(CN(C)C(=O)c2cc(-c3ccc(NCCOC)c(C)n3)nc3ccc(Cl)cc23)c1C [Compound 568]	0.26 µM			
0.0191 µM	0.0112 µM	0.0538 µM					CCc1noc(CN(C)C(=O)c2cc(-c3ccc(NC4CN(C)C4)c(C)n3)nc3ccc(Cl)cc23)c1C [Compound 613]	0.0518 µM			
0.0183 µM	0.0092 µM	0.113 µM					CCn1ncc(CN(C)C(=O)c2nc(-c3cc4c(NC)noc4cc3C)nc3ccc(Cl)cc23)c1C [Compound 624]	0.284 µM			
0.016 µM	0.0075 µM					0.12 µM	CCn1ncc(CN(C)C(=O)c2nc(-c3ccc(NC4CCOCC4)c(C)c3)nc3ccc(Cl)cc23)c1C [Compound 387]				0.088 µM
0.014 µM	0.0029 µM	0.14 µM					CCn1ncc(CN(C)C(=O)c2nc(-c3cc(Cl)cc(NCCNC)c3)nc3ccc(Cl)cc23)c1C [Compound 14]			0.039 µM	
0.0123 µM	0.0041 µM	0.16 µM					CCn1ncc(CN(C)C(=O)c2nc(-c3cc(C)cc(NC4CNC4)c3)nc3ccc(Cl)cc23)c1C [Compound 444]	0.0582 µM			
0.00782 µM	0.0052 µM	0.0745 µM					CCn1ncc(CN(C)C(=O)c2cc(-c3cc4n[nH]cc4cn3)nc3ccc(Cl)cc23)c1C [Compound 437]	0.119 µM			
0.00721 µM	0.0042 µM	0.13 µM					CCn1ncc(CN(C)C(=O)c2nc(-c3cc(C)c4[nH]c(=O)[nH]c4c3)nc3ccc(Cl)cc23)c1C [Compound 436]	0.0942 µM			
